Source: patent US11053204B2, “Pyrimidinyloxy benzene derivatives as herbicides” (FMC Corporation, priority 2015, dated 2021)

Assays:
Type in all cases: in vivo
kochia (Kochia scoparia) = experiment: Test A postemergence, visual injury rating
Procedure, shortened: (§1)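 Injury scores run from 0, no effect, to 100, complete control, judged by eye against untreated plants roughly 10 days after treatment. Chemicals carried a surfactant in a non-phytotoxic solvent and went onto loam–sand soil preemergence or onto one- to two-leaf seedlings postemergence.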

[1] = system: wheat (Triticum aestivum); experiment: Test A postemergence, visual injury rating
Procedure, shortened: as §1

[2] = system: ragweed (common ragweed, Ambrosia elatior); experiment: Test A postemergence, visual injury rating
Procedure, shortened: as §1

[3] = system: galium (catchweed bedstraw, Galium aparine); experiment: Test A postemergence, visual injury rating
Procedure, shortened: as §1

[4] = system: giant foxtail (Setaria faberii); experiment: Test A postemergence, visual injury rating
Procedure, shortened: as §1

corn (Zea mays) = experiment: Test A postemergence, visual injury rating
Procedure, shortened: as §1

[5] = system: blackgrass (Alopecurus myosuroides); experiment: Test A postemergence, visual injury rating
Procedure, shortened: as §1

[6] = system: pigweed (Amaranthus retroflexus); experiment: Test A postemergence, visual injury rating
Procedure, shortened: as §1

[7] = system: barnyardgrass (Echinochloa crus-galli); experiment: Test A postemergence, visual injury rating; conditions: 0 is no effect, 100 is complete control; for Barnyardgrass plant response rating: 0 to 100 scale, approximately 10 days
Procedure, shortened: as §1

[8] = system: Italian ryegrass (Lolium multiflorum); experiment: Test A postemergence, visual injury rating
Procedure, shortened: as §1

[9] = system: lambsquarters (Chenopodium album); experiment: Test C preemergence, plant response rating; conditions: Preemergence
Procedure, shortened: (§2)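 Both timings shared one formulation, a non-phytotoxic solvent mixture with surfactant, and a greenhouse period of 13 to 15 d. Preemergence used seeded loam/sand or silt loam soil, postemergence used 2 to 18 cm plants; visual ratings ran from 0 (no effect) to 100 (complete control).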

[10] = system: nutsedge, yellow (yellow nutsedge, Cyperus esculentus); experiment: Test C preemergence, plant response rating; conditions: Preemergence
Procedure, shortened: as §2

[11] = system: wheat (winter wheat, Triticum aestivum); experiment: Test C preemergence, plant response rating; conditions: Preemergence
Procedure, shortened: as §2

[12] = system: morningglory (Ipomoea coccinea); experiment: Test C preemergence, plant response rating; conditions: Preemergence
Procedure, shortened: as §2

[13] = system: velvetleaf (Abutilon theophrasti); experiment: Test C preemergence, plant response rating; conditions: Preemergence
Procedure, shortened: as §2

[14] = system: waterhemp (common waterhemp, Amaranthus rudis); experiment: Test C preemergence, plant response rating; conditions: Preemergence
Procedure, shortened: as §2

[15] = system: crabgrass, large (large crabgrass, Digitaria sanguinalis); experiment: Test C postemergence, plant response rating; conditions: for Crabgrass, Large plant response rating: scale 0 to 100 (0 no effect, 100 complete control)
From the text: (§3) Seeds of plant species selected from blackgrass (Alopecurus myosuroides), ryegrass, Italian (Italian ryegrass, Lolium multiflorum), wheat (winter wheat, Triticum aestivum), galium (catchweed bedstraw, Galium aparine), corn (Zea mays), crabgrass, large (large crabgrass, Digitaria sanguinalis), foxtail, giant (giant foxtail, Setaria faberii), johnsongrass (Sorghum halepense), lambsquarters (Chenopodium album), morningglory (Ipomoea coccinea), nutsedge, yellow (yellow nutsedge, Cyperus esculentus), pigweed (Amaranthus retroflexus), ragweed (common ragweed, Ambrosia elatior), soybean (Glycine max), barnyardgrass (Echinochloa crus-galli), oilseed rape (Brassica napus), pigweed, palmer (palmer pigweed, Amaranthus palmeri), waterhemp (common waterhemp, Amaranthus rudis), velvetleaf (Abutilon theophrasti), kochia (Kochia scoparia), surinam grass (Brachiaria decumbens), nightshade (eastern black nightshade, Solanum ptycanthum), wild poinsettia (Euphorbia heterophylla), windgrass (Apera spica-venti), and oat, wild (wild oat Avena fatua), were planted into a blend of loam soil and sand or a silt loam soil and treated preemergence with test chemicals formulated in a non-phytotoxic solvent mixture which included a surfactant.
(§4) At the same time, plants selected from these crop and weed species and also chickweed (common chickweed, Stellaria media), buckwheat, wild (wild buckwheat, Polygonum convolvulus), wild mustard (Sinapis arvensis), field poppy (Papaver rhoeas), field violet (Viola arvensis), geranium, cutleaf (cutleaf geranium, Geranium dissectum), Canada thistle (Cirsium arvense), and speedwell (bird's-eye speedwell, Veronica persica), were planted in pots containing Sunshine Redi-Earth® planting medium comprising spaghnum peat moss, vermiculite, starter nutrients and dolomitic limestone and treated with postemergence applications of test chemicals formulated in the same manner. Plants ranged in height from 2 to 18 cm (1- to 4-leaf stage) for postemergence treatments. Treated plants and controls were maintained in a greenhouse for 13 to 15 d, after which time all species were compared to controls and visually evaluated. Plant response ratings, summarized in Table C, are based on a scale of 0 to 100 where 0 is no effect and 100 is complete control. A dash (-) response means no test result.

[16] = system: ryegrass, Italian (Italian ryegrass, Lolium multiflorum); experiment: Test C postemergence, plant response rating; conditions: for Ryegrass, Italian plant response rating: scale 0 to 100 (0 no effect, 100 complete control)
From the text: as §3, §4

[17] = 31 g ai/ha, 0 to 100 scale (0 no effect, 100 complete control)
[18] = 125 g ai/ha, 0 to 100 scale, 0 is no effect, 100 is complete control, approximately 10 days
[19] = 500 g ai/ha, 0 is no effect, 100 is complete control
[20] = 125 g ai/ha, 0 is no effect, 100 is complete control

FC(F)(F)CCCCc1c(Br)cccc1Oc1ncc(Cl)cn1 [Compound 138]
Kochia plant response rating (kochia (Kochia scoparia); [17]): 90
Kochia plant response rating (kochia (Kochia scoparia); [18]): 100
Wheat plant response rating [1, 17]: 20
Wheat plant response rating [1, 18]: 40
Ragweed plant response rating [2, 17]: 30
Ragweed plant response rating [2, 18]: 60
Galium plant response rating [3, 17]: 70
Galium plant response rating [3, 18]: 100
Foxtail, Giant plant response rating [4, 17]: 90
Foxtail, Giant plant response rating [4, 18]: 90
Corn plant response rating (corn (Zea mays); [17]): 30
Corn plant response rating (corn (Zea mays); [18]): 60
Blackgrass plant response rating [5, 17]: 40
Blackgrass plant response rating [5, 18]: 90
Pigweed plant response rating [6, 17]: 100
Pigweed plant response rating [6, 18]: 100
Barnyardgrass plant response rating ([7]; 31 g ai/ha): 90
Barnyardgrass plant response rating ([7]; 125 g ai/ha): 90
Ryegrass, Italian plant response rating [8, 17]: 30
Ryegrass, Italian plant response rating [8, 18]: 100
Plant response rating, Lambsquarters ([9]; 125 g ai/ha, scale of 0 to 100): 70
Plant response rating, Lambsquarters ([9]; 31 g ai/ha, scale 0 to 100): 35
Plant response rating, Lambsquarters ([9]; 62 g ai/ha, scale 0 to 100): 25
Plant response rating, Nutsedge, Yellow ([10]; 125 g ai/ha, scale of 0 to 100): 0
Plant response rating, Nutsedge, Yellow ([10]; 31 g ai/ha, scale 0 to 100): 0
Plant response rating, Nutsedge, Yellow ([10]; 62 g ai/ha, scale 0 to 100): 0
Plant response rating, Wheat ([11]; 125 g ai/ha, scale of 0 to 100): 10
Plant response rating, Wheat ([11]; 31 g ai/ha, scale 0 to 100): 5
Plant response rating, Wheat ([11]; 62 g ai/ha, scale 0 to 100): 5
Plant response rating, Morningglory ([12]; 125 g ai/ha, scale of 0 to 100): 10
Plant response rating, Morningglory ([12]; 31 g ai/ha, scale 0 to 100): 0
Plant response rating, Morningglory ([12]; 62 g ai/ha, scale 0 to 100): 0
Plant response rating, Velvetleaf ([13]; 125 g ai/ha, scale of 0 to 100): 50
Plant response rating, Velvetleaf ([13]; 31 g ai/ha, scale 0 to 100): 25
Plant response rating, Velvetleaf ([13]; 62 g ai/ha, scale 0 to 100): 20
Plant response rating, Waterhemp ([14]; 125 g ai/ha, scale of 0 to 100): 98
Plant response rating, Waterhemp ([14]; 31 g ai/ha, scale 0 to 100): 85
Plant response rating, Waterhemp ([14]; 62 g ai/ha, scale 0 to 100): 100
Plant response rating, Crabgrass, Large ([15]; 16 g ai/ha, scale of 0 to 100): 35
Plant response rating, Crabgrass, Large ([15]; 31 g ai/ha, scale 0 to 100): 65
Crabgrass, Large plant response rating ([15]; 62 g ai/ha): 85
Crabgrass, Large plant response rating ([15]; 125 g ai/ha): 95
Plant response rating, Ryegrass, Italian ([16]; 16 g ai/ha, scale of 0 to 100): 5
Plant response rating, Ryegrass, Italian ([16]; 31 g ai/ha, scale 0 to 100): 5
Ryegrass, Italian plant response rating ([16]; 62 g ai/ha): 30
Ryegrass, Italian plant response rating ([16]; 125 g ai/ha): 35

CCCC(=O)c1c(Br)cccc1Oc1ncc(Cl)cn1 [Compound 75]
Kochia plant response rating (kochia (Kochia scoparia); [18]): 100
Kochia plant response rating (0 to 100 scale) (kochia (Kochia scoparia); [19]): 100
Wheat plant response rating [1, 18]: 20
Wheat plant response rating (0 to 100 scale) [1, 19]: 70
Ragweed plant response rating [2, 18]: 30
Ragweed plant response rating (0 to 100 scale) [2, 19]: 40
Galium plant response rating (0 to 100 scale) [3, 20]: 80
Galium plant response rating (0 to 100 scale) [3, 19]: 100
Foxtail, Giant plant response rating (0 to 100 scale) [4, 20]: 90
Foxtail, Giant plant response rating (0 to 100 scale) [4, 19]: 100
Corn plant response rating (0 to 100 scale) (corn (Zea mays); [20]): 80
Corn plant response rating (0 to 100 scale) (corn (Zea mays); [19]): 90
Blackgrass plant response rating (0 to 100 scale) [5, 20]: 40
Blackgrass plant response rating (0 to 100 scale) [5, 19]: 60
Pigweed plant response rating [6, 18]: 100
Pigweed plant response rating (0 to 100 scale) [6, 19]: 100
Barnyardgrass plant response rating (0 to 100 scale) ([7]; 125 g ai/ha): 90
Barnyardgrass plant response rating (0 to 100 scale) ([7]; 500 g ai/ha): 100
Ryegrass, Italian plant response rating [8, 18]: 40
Ryegrass, Italian plant response rating (0 to 100 scale) [8, 19]: 70
Plant response rating, Lambsquarters ([9]; 125 g ai/ha, scale of 0 to 100): 70
Plant response rating, Lambsquarters ([9]; 16 g ai/ha, scale 0 to 100): 0
Plant response rating, Lambsquarters ([9]; 31 g ai/ha, scale 0 to 100): 10
Plant response rating, Lambsquarters ([9]; 62 g ai/ha, scale 0 to 100): 35
Plant response rating, Nutsedge, Yellow ([10]; 125 g ai/ha, scale of 0 to 100): 20
Plant response rating, Nutsedge, Yellow ([10]; 16 g ai/ha, scale 0 to 100): 0
Plant response rating, Nutsedge, Yellow ([10]; 31 g ai/ha, scale 0 to 100): 0
Plant response rating, Nutsedge, Yellow ([10]; 62 g ai/ha, scale 0 to 100): 0
Plant response rating, Wheat ([11]; 125 g ai/ha, scale of 0 to 100): 10
Plant response rating, Wheat ([11]; 16 g ai/ha, scale 0 to 100): 0
Plant response rating, Wheat ([11]; 31 g ai/ha, scale 0 to 100): 0
Plant response rating, Wheat ([11]; 62 g ai/ha, scale 0 to 100): 10
Plant response rating, Morningglory ([12]; 125 g ai/ha, scale of 0 to 100): 10
Plant response rating, Morningglory ([12]; 16 g ai/ha, scale 0 to 100): 0
Plant response rating, Morningglory ([12]; 31 g ai/ha, scale 0 to 100): 0
Plant response rating, Morningglory ([12]; 62 g ai/ha, scale 0 to 100): 20
Plant response rating, Velvetleaf ([13]; 125 g ai/ha, scale of 0 to 100): 25
Plant response rating, Velvetleaf ([13]; 16 g ai/ha, scale 0 to 100): 0
Plant response rating, Velvetleaf ([13]; 31 g ai/ha, scale 0 to 100): 5
Plant response rating, Velvetleaf ([13]; 62 g ai/ha, scale 0 to 100): 35
Plant response rating, Waterhemp ([14]; 125 g ai/ha, scale of 0 to 100): 98
Plant response rating, Waterhemp ([14]; 16 g ai/ha, scale 0 to 100): 75
Plant response rating, Waterhemp ([14]; 31 g ai/ha, scale 0 to 100): 95
Plant response rating, Waterhemp ([14]; 62 g ai/ha, scale 0 to 100): 98
Plant response rating, Crabgrass, Large ([15]; 16 g ai/ha, scale 0 to 100): 10
Plant response rating, Crabgrass, Large ([15]; 31 g ai/ha, scale 0 to 100): 10
Crabgrass, Large plant response rating ([15]; 62 g ai/ha): 15
Crabgrass, Large plant response rating ([15]; 125 g ai/ha): 25
Plant response rating, Ryegrass, Italian ([16]; 16 g ai/ha, scale 0 to 100): 0
Plant response rating, Ryegrass, Italian ([16]; 31 g ai/ha, scale 0 to 100): 10
Ryegrass, Italian plant response rating ([16]; 62 g ai/ha): 10
Ryegrass, Italian plant response rating ([16]; 125 g ai/ha): 5
